Test results from patent publication US20180289692A1, “TLR MODULATORS AND METHODS OF USE” (CELGENE CORPORATION, priority 2015, published 2018).
Oligonucleotides are written 5' to 3', each unit as a sugar letter and its base; * is a phosphorothioate linkage, no mark a phosphodiester; rarer units and linkages stand in square brackets, end groups in braces. Plain capitals give the bases only. d = 2'-deoxy (DNA)

Legend:
Format in all cases: cell-based
human pDCs [1] = assay: Surface ICOS-L and PD-L1 expression in CCR6+CD123+ human pDCs by FACS; settings: for increase of COMPOUND (I) induced ICOS-L expression by HCQ: primary human pDCs
Procedure: To evaluate surface ICOS-L, PD-L1 expression in the CCR6+CD123+ pDC cell subsets, PBMCs were incubated on ice in the presence of Fc-Block (BD Pharmingen) for 20 minutes, washed, and incubated with antibodies specific for surface molecules or isotype-matched control mAbs. APC-labeled anti-human ICOS-L mAb were purchased from BioLegend, PECY-7-labeled anti-human CCR6 mAb, FITC-labeled anti-human PD-L1 mAb and PerCP-Cy5.5 labeled anti-human CD123 mAb were purchased from BD Biosciences. The stained cells were then subjected to FACS (FACSCanto, BD Biosciences) using FACSDiva software. FACS analysis was performed using FlowJo software. Single, viable cells in the CCR6+CD123+ pDC gates were analyzed. The flow cytometric results are expressed as the percentage and MFI of ICOSL-, or PD-L1-expressing cells in each gate.
pDCs were isolated and ICOS-L expression was analyzed as described in Example 2.

TLR9 = biological target: T1, TLR9 (Homo sapiens, UniProt Q9NR96); assay: NF-κB reporter gene in recombinant TLR9-expressing HEK293 cells; settings: TLR9-expressing HEK293 cells, FIG. 16A
T1 construct: expressed in transfected cells; host or cells: TLR9 expressing HEK293 reporter cells with a human NF-κB reporter construct
T1 sequence (Q9NR96 26-1032): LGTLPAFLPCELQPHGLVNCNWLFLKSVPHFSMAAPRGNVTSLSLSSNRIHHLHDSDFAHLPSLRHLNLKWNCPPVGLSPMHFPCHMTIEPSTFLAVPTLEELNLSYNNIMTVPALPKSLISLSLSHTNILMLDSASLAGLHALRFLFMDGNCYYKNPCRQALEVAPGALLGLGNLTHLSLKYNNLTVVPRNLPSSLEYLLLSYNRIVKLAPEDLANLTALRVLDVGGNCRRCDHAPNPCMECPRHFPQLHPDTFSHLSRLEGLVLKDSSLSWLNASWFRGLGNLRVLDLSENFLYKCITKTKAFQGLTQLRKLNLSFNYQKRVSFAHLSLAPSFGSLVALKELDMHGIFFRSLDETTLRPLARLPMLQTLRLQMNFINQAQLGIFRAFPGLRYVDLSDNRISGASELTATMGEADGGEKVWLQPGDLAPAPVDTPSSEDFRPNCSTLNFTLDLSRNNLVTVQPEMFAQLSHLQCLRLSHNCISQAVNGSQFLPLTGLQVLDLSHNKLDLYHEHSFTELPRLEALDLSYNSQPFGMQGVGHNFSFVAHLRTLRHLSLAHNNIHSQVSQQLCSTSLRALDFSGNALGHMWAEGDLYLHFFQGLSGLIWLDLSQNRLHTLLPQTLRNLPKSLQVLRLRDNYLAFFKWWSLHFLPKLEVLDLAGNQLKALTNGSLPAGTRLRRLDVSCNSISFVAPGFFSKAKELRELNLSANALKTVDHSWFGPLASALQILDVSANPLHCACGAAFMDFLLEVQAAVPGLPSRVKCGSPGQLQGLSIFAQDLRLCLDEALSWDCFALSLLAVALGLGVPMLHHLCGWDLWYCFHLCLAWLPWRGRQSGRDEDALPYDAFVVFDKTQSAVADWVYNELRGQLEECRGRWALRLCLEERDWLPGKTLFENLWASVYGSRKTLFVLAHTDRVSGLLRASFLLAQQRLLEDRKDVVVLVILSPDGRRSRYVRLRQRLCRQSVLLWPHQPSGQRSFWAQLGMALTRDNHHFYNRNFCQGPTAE
Procedure: FIGS. 16A-B show results of experiments in which recombinant TLR-expressing HEK293 cells carrying an NF-κB reporter gene were incubated with COMPOUND(I), ODN150, ODN2006, or ODN7040 for 48 hours at the indicated concentrations.

[2] = test system: canonical NF-κB promoter reporter; assay: Mouse Raw Blue Reporter Cells, SEAP reporter driven by canonical NF-κB promoter (FIG. 11); settings: mouse macrophages, 24 hrs, SEAP, COMPOUND (I) up to 10 μM
Procedure: Mouse Raw Blue Reporter Cells (Invivogen), containing a secreted embryonic alkaline phosphatase (SEAP) reporter gene driven by canonical NF-κB promoter, were plated in 96-well plates at 50,000 cells/well in DMEM Media supplemented with 10% FBS, 2 mM L-glutamine, 1% Pen/Strep, […] Normacin. […] The supernatant was harvested and tested for SEAP production by measuring OD at 630 nm.

human PBMCs [3] = assay: Cytokine production by human PBMCs treated with ODNs, MagPix Multi-Plex; settings: for IFN-γ / IL-1β / IL-6 / IL-10 / IL-12p40 / IP10 / TNF-α: human PBMC, 24 hrs
Procedure: PBMC from 3 donors were isolated from Buffy Coat (Blood Center of NY). The cells were washed with PBS and re-suspended in RPMI-1640 Media with 5% Human AB Serum, 1% Pen/Strep and 2 mM L-glutamine. The cells were then plated in 96-well plates at 250,000 cells/well. […] After 24 hrs, the supernatant was harvested and tested for cytokine production using MagPix Multi-Plex Technology. The following cytokines were tested: IL-6, IL-10, IL-12p40, IFN-α, IFN-γ, IP-10, IL-1β and TNF-α.

human PBMCs [4] = assay: IL-1β secretion from human PBMCs by ELISA (inflammasome activation); settings: 24 hours, FIG. 15
human pDCs [5] = assay: Intracellular IL-10, TGF-β1 and IDO expression in CCR6+CD123+ human pDCs by FACS; settings: 24 hrs, FIG. 2A
Excerpt: To evaluate intracellular IL-10, TGFβ 1 and IDO expression in human pDCs, the cells were first stained with PECY-7-labeled anti-human CCR6 mAb (BD Biosciences), PerCP-Cy5.5 labeled anti-human CD123 mAb (BD Biosciences). Stained cells were then fixed and permeabilized using a Cytofix/Cytoperm kit (BD Biosciences) according to the manufacturer's instructions and stained with PE-labeled anti-human IDO (Biolegend), APC-labeled anti-human IL-10 mAb and FITC-labeled anti-human TGF-β1 (BD Biosciences), or isotype-matched control mAbs. The stained cells were acquired by FACSCanto using the FACSDiva software. FACS analysis was performed using FlowJo software. Single, viable cells in the CCR6+CD123+ pDC gates were analyzed. The flow cytometric results are expressed as the percentage and MFI of IL-10-, TGF-β1- or IDO-expressing cells in each gate. Results are expressed as the mean±SEM of cells quantified.
IL10 was alternatively measured in cellular supernatants by ELISA using standard protocols.

Compound | IFN-γ (human PBMCs [3]; high-dose ODN 10 μM) [pg/mL] | IL-1β (human PBMCs [3]; high-dose ODN 10 μM) [pg/mL] | IL-6 (human PBMCs [3]; high-dose ODN 10 μM) [fold change] | IL-10 (human PBMCs [3]; high-dose ODN 10 μM) [fold change] | IL-12p40 (human PBMCs [3]; high-dose ODN 10 μM) [pg/mL] | IP10 (human PBMCs [3]; high-dose ODN 10 μM) [fold change] | TNF-α (human PBMCs [3]; high-dose ODN 10 μM) [fold change] | IFN-γ (human PBMCs [3]; low-dose ODN 0.1 μM) [pg/mL] | IL-1β (human PBMCs [3]; low-dose ODN 0.1 μM) [pg/mL] | IL-6 (human PBMCs [3]; low-dose ODN 0.1 μM) [fold change] | IL-10 (human PBMCs [3]; low-dose ODN 0.1 μM) [fold change] | IL-12p40 (human PBMCs [3]; low-dose ODN 0.1 μM) [pg/mL] | IP10 (human PBMCs [3]; low-dose ODN 0.1 μM) [fold change] | TNF-α (human PBMCs [3]; low-dose ODN 0.1 μM) [fold change] | other results
CCN(CCO)CCCC(C)Nc1ccnc2cc(Cl)ccc12 (stereo not drawn) [HCQ, hydroxychloroquine] | – | – | – | – | – | – | – | – | – | – | – | – | – | – | increase of COMPOUND (I) induced ICOS-L expression by HCQ (human pDCs [1]; HCQ 10 μM + COMPOUND (I) 1 μM, FIG. 6A): 7.3 fold; increase of COMPOUND (I) induced ICOS-L expression by HCQ (human pDCs [1]; HCQ 10 μM + COMPOUND (I) 1 μM, FIG. 6B): 2.0 fold; increase of COMPOUND (I) induced ICOS-L expression by HCQ (human pDCs [1]; HCQ 10 μM + COMPOUND (I) 10 μM, FIG. 6A): 7.1 fold; increase of COMPOUND (I) induced ICOS-L expression by HCQ (human pDCs [1]; HCQ 10 μM + COMPOUND (I) 10 μM, FIG. 6B): 1.9 fold; ICOS-L expression, agent alone (human pDCs [1]; human pDCs, COMPOUND (I) 1 μM and 10 μM by itself, HCQ 10 μM alone): did not induce measurable levels; effect on COMPOUND (I) activity on NF-κB reporter gene (TLR9): inhibited
ODN150C: 5′-G*G*A*ACAGTTAGTCCATa*G*G*C-3′, PO except * = PS; control lacking CG-dinucleotide sequences (DNA GGAACAGTTAGTCCATGGC; listed as DNA, chemistry not fully specified) | 0.1 | 0.3 | 1.4 | 1 | 0 | 1.5 | 1.4 | 0.1 | 0.2 | 1.2 | 1 | 0 | 1 | 1.2 | activation of canonical NF-κB reporter [2]: did not activate
ODN301C: 5′-GTAGCCCCATCACCCAGCAGC-3′, fully PS, GC-containing (DNA dG*dT*dA*dG*dC*dC*dC*dC*dA*dT*dC*dA*dC*dC*dC*dA*dG*dC*dA*dG*dC) | 0 | 1.9 | 3.3 | 1 | 0.8 | 0.25 | 2.8 | 0 | 0.1 | 1.3 | 1 | 0 | 1.1 | 1.1 | PD-L1 protein induction (human pDCs [1]; human pDCs, 24 hrs, FIG. 2B): can induce; IL-1β induction (human PBMCs [4]): induce; TGF-β1 protein induction (human pDCs [5]): can induce; IFNα secretion from PBMCs (human PBMCs [3]; any tested concentration between 0.01 μM and 10 μM, FIG. 25): not found to induce
